Measurements from US20220387405A1, “METHODS OF TREATMENT WITH N-((R)-1-(3-CHLOROPYRIDIN-2-YL)-2,2,2-TRIFLUOROETHYL)-2-((S)-2,6-DIOXOPIPERIDIN-3-YL)-1-OXOISOINDOLINE-5-CARBOXAMIDE” (CELGENE CORPORATION, priority 2021, published 2022).

Tests used:
[1] = tested on: CD34+ cells from BM samples of healthy donors; experiment: Liquid culture of CD34+ cells from healthy donors (FACS); type: cell-based, human
Experimental: (§1) CD34^+ cells isolated from BM samples of 3 TP53 WT AML donors and 3 healthy donors were treated with increasing concentrations of Compound 1 in liquid culture at times ranging from 4 hours to 5 days. […] Acute myeloid leukemia blasts sustained CK1α degradation up to 5 days in culture as assessed by fluorescence-activated cell sorting (FACS) analysis. Strikingly, p53 stabilization was sustained longer in leukemic cells (up to 48 hours) compared with normal BM cells (for 24 hours).

[2] = tested on: MV-4-11-luc disseminated AML xenograft; experiment: MV-4-11-luc disseminated AML xenograft model, tumor burden and survival; type: in vivo, mice
Experimental: The CK1α degradation activity and subsequent antitumor activity of Compound 1 in vivo was tested in two TP53 WT AML cell line-derived xenograft models. The depth and duration of CK1α degradation was dose-dependent.
In a subsequent study, MV-4-11-luc disseminated AML xenografts were treated with 2 cycles of fixed doses and varying dosing duration (5/28 days, 7/28 days and 14/28 days). […] In Kaplan-Meier survival analysis following cessation dosing, the median survival of the vehicle treated animals was 45.5 days. […] The median survival of animals treated with Compound 1 with 2 cycles of 7/28-days at 10, 30, and 50 mg/kg was 67.5 (p<0.0001), 70 (p<0.0001), and 70 (p<0.0001) days, respectively. For the animals treated with 2 cycles of 14/28-days at 3, 10 and 30 mg/kg was 69.5 (p<0.0001), 94.5 (p<0.0001) and 152 (p<0.0001) days, respectively. For 30 mg/kg with 14/28-day cycle, 4/10 animals remained tumor free at the termination of the study on day 154.

[3] = tested on: blasts in TP53 WT AML samples; experiment: 5-day liquid culture of AML patient BM cells; type: cell-based, human
[4] = Cardiovascular assessment (ECG, heart rate) in conscious cynomolgus monkeys; type: in vivo; conditions: oral gavage, 0.03-0.3 mg/kg, Regimens 1 and 2, 1 hour postdose
Experimental: Cardiovascular assessments (electrocardiograms [ECGs] and heart rates) were conducted in conscious cynomolgus monkeys as part of the Good Laboratory Practice (GLP)-compliant repeat dose toxicity study. In this study, Compound 1 was administered by oral gavage to Cynomolgus monkeys (5/sex/group) in Groups 1-5 at doses of 0 (0.5% (w/v) Methylcellulose, 0.25% (v/v) Tween 80 in 50 mM citrate buffer pH 3), 0.03, 0.1, 0.1 and 0.3 mg/kg, respectively, intermittently using 2 different dosing regimens. Groups 2 and 3 animals were dosed for 7 consecutive days in each 4-week cycle for 2 cycles (Regimen 1: on Days 1-7 and 29-35), whereas Groups 4 and 5 animals were dosed twice weekly for 4 weeks (Regimen 2: on Days 1, 4, 8, 11, 15, 18, 22 and 25). A combination of both dosing regimens (Days 1-7, 8, 11, 15, 18, 22, 25, and 29-35) was used for administration of the vehicle to the control animals. […] Qualitative (visual inspection) and quantitative assessments including heart rates and PR, QRS, RR, QT, and QTc intervals were performed. QTc was calculated using Bazett's formula.

[5] = molecular target: T1, CYP2D6 (Homo sapiens, UniProt P10635); experiment: CYP inhibition in human liver microsomes, CYP2D6; type: in vitro ADME
T1 construct: In human liver microsomes; from tissue; host or cells: human liver microsomes
T1 sequence (P10635 whole entry): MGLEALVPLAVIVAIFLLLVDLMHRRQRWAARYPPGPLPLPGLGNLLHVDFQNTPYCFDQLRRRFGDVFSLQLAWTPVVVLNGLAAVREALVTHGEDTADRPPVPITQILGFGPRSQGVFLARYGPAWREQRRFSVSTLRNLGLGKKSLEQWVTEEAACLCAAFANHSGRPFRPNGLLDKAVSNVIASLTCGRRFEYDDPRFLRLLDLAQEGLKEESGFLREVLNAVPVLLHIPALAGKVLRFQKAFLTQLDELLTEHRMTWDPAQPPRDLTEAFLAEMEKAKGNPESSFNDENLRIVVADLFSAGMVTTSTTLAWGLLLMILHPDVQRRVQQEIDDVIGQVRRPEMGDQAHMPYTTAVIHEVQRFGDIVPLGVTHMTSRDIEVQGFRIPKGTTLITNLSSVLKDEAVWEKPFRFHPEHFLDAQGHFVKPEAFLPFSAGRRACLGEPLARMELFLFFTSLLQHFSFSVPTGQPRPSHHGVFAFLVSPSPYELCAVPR

[6] = tested on: CD34+ cells from BM samples of TP53 WT AML donors; experiment: Liquid culture of CD34+ cells from TP53 WT AML donors (FACS); type: cell-based, human
Experimental: as §1

[7] = Partitioning into blood cells; type: in vitro ADME
From the text: There was no marked difference in free fraction among human, rat and monkey. Over the concentration ranges tested (25- to 50-fold range) in each species, there was <2-fold change in free fraction.

[8] = tested on: CYP3A4/5; experiment: Enzymatic metabolism (enzyme identification); type: in vitro ADME
From the text: Compound 1 underwent non-enzymatic hydrolysis, oxidation, N-dealkylation, glucuronidation and a combination of these pathways in hepatocytes of human and animal species. Although there were quantitative differences in the formation of Compound 1 metabolites across species, qualitatively all metabolites formed in human hepatocytes were also observed in hepatocytes and plasma of rats and/or monkeys, the two species used for nonclinical safety testing. Following multiple oral administrations of Compound 1 to rats and monkeys, Compound 1 was the predominant component in plasma of both species. The metabolites observed in plasma were similar to those observed in hepatocytes.

[9] = tested on: AML cell lines with TP53 loss or mutation; experiment: Activity against AML cell lines with TP53 loss or mutation; type: cell-based
From the text: (§2) The remaining 5 cell lines were either medium-sensitive or completely resistant to Compound 1; the unresponsiveness to Compound 1 treatment was associated with inadequate accumulation of p53 protein and/or its transcriptional targets BAX and PUMA.

[10] = tested on: TP53 WT AML cell lines; experiment: Cell autonomous activity against TP53 WT AML cell lines; type: cell-based
From the text: as §2

For `O=C1CC[C@H](N2Cc3cc(C(=O)N[C@H](c4ncccc4Cl)C(F)(F)F)ccc3C2=O)C(=O)N1` [Compound 1, N-((R)-1-(3-chloropyridin-2-yl)-2,2,2-trifluoroethyl)-2-((S)-2,6-dioxopiperidin-3-yl)-1-oxoisoindoline-5-carboxamide], the “duration of sustained p53 stabilization” value ([1]; normal BM cells) was 24 h, the cellular outcome ([1]; normal cells) was “Cycle arrest” and the “animals remaining tumor free at termination of the study” value ([2]; 30 mg/kg, 14/28-day cycle, day 154) was 4/10. It also gave a median survival ([2]; 2 cycles of 5/28-days at 50 mg/kg, vehicle 45.5 days) of 68.5 days, a median survival ([2]; 2 cycles of 7/28-days at 10 mg/kg) of 67.5 days and a median survival ([2]; 2 cycles of 7/28-days at 30 mg/kg) of 70 days. The median survival ([2]; 2 cycles of 7/28-days at 50 mg/kg) was 70 days, the median survival ([2]; 2 cycles of 14/28-days at 3 mg/kg) was 69.5 days and the median survival ([2]; 2 cycles of 14/28-days at 10 mg/kg) was 94.5 days. For the same molecule, the median survival ([2]; 2 cycles of 14/28-days at 30 mg/kg) was 152 days, the tumor burden ([2]; mice with disseminated MV-4-11 AML, dose-, schedule- and duration-dependent) was “significantly reduced” and the total blast numbers ([3]; 5 days in liquid culture, all TP53 WT AML samples tested, vs vehicle control) was “deeply decreased”. For the same molecule, the IC50 ([3]; liquid culture, apoptosis and cell cycle arrest, all samples) was “nanomolar range”, the “effects on heart rate, PR, QRS, QT, and QTc intervals” value [4] was “no Compound 1 related effects” and the time-dependent inhibition ([5]; CYP2D6, 30-minute preincubation with NADPH) was “not a time-dependent inhibition”. For the same molecule, the inhibitory effect ([5]; human liver microsomes, CYP2D6) was at most 25%, the “duration of sustained CK1α degradation” value ([6]; AML blasts in culture, FACS) was “up to 5 days” and the cellular outcome ([6]; leukemic cells) was “apoptotic outcome”. The “duration of sustained p53 stabilization” value ([6]; leukemic cells) was “up to 48 hours”, the “partitioning into blood cells” value [7] was “no or limited partitioning” and the enzymatic metabolism [8] was “primarily mediated by CYP3A4/5”. The sensitivity to treatment [9] was “insensitive”, the “number of cell lines sensitive to Compound 1” value ([10]; of the 13 TP53 WT AML cell lines tested) was 8 and the IC50 ([10]; the 8 sensitive of 13 TP53 WT AML cell lines tested) was 15 to 500 nM.
